Results on eleven compounds are retold here after PubChem BioAssay (NCI).

Structures are written as SMILES.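 In this assay, cells in 96-well plates receive the compound at five concentrations for 48 hours. Endpoints are linearly interpolated between the surrounding concentrations. The concentration for 50% growth inhibition is given as GI50. TGI is the concentration that stops growth completely.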

Among the test systems are COLO 205 colon; HOP-62 NSCLC; HOP-92 NSCLC; MDA-MB-231 breast; MOLT-4 leukemia; NCI-H226 lung; OVCAR-3 ovarian; OVCAR-8 ovarian; SF-268 CNS; SK-OV-3 ovarian.
Test in all cases: NCI anticancer screen, dose series, 48 h

In the case of `CCOC(=O)CCC1(C(=O)O[C@@H]2C[C@H](C)CC[C@H]2C(C)C)CCCCC1=O` (some centres undefined), the TGI with COLO 205 colon, in the assay on HOP-62 NSCLC, with HOP-92 NSCLC, in the assay on MDA-MB-231 breast, with MOLT-4 leukemia and in the assay on NCI-H226 lung was more than 100 µM each time. Further, the TGI with OVCAR-3 ovarian, with OVCAR-8 ovarian, in the assay with SF-268 CNS and in the assay on SK-OV-3 ovarian was more than 100 µM each time.

For the compound `[O-][n+]1cc(SCc2ccccc2)ncc1SCc1ccccc1`, the TGI in the assay with COLO 205 colon, in the assay on HOP-62 NSCLC, in the assay on HOP-92 NSCLC, in the assay with MDA-MB-231 breast, with MOLT-4 leukemia and with NCI-H226 lung was more than 10 µM in each case. Further, the TGI with OVCAR-3 ovarian, with OVCAR-8 ovarian, in the assay with SF-268 CNS and in the assay with SK-OV-3 ovarian was more than 10 µM each time.

For the compound `CC(=O)O[C@H]1CC[C@]2(C=O)[C@H]3CC[C@]4(C)[C@@H](C5=CC(=O)OC5)CC[C@]4(O)[C@@H]3CC[C@]2(O)C1`, the TGI in the assay on COLO 205 colon was 1.64 µM; in the assay on HOP-62 NSCLC, 0.833 µM; in the assay on HOP-92 NSCLC, 2.76 µM; in the assay on MDA-MB-231 breast, 3.14 µM; in the assay on MOLT-4 leukemia, 0.0798 µM; with NCI-H226 lung it was 1.97 µM. Also, the TGI was 0.622 µM with OVCAR-3 ovarian, 1.01 µM in the assay on OVCAR-8 ovarian, 0.806 µM in the assay on SF-268 CNS and 0.802 µM with SK-OV-3 ovarian.

Consider `Fc1sc2c(c1F)C1CCC2C1` (centres undefined), for which the TGI with COLO 205 colon is more than 100 µM; in the assay on HOP-62 NSCLC, more than 100 µM; with HOP-92 NSCLC it was more than 100 µM; with MDA-MB-231 breast, more than 100 µM; in the assay on MOLT-4 leukemia it was 86.8 µM; with NCI-H226 lung it was more than 100 µM. Besides, the TGI in the assay on OVCAR-3 ovarian, in the assay on OVCAR-8 ovarian, in the assay on SF-268 CNS and in the assay with SK-OV-3 ovarian was more than 100 µM each time.

In the case of `NC(=O)c1ccc(S(=O)(=NS(=O)(=O)c2ccccc2)c2ccc(C(N)=O)cc2)cc1`, the TGI with COLO 205 colon, in the assay with HOP-62 NSCLC, with HOP-92 NSCLC, with MDA-MB-231 breast, in the assay with MOLT-4 leukemia and with NCI-H226 lung was more than 100 µM in each case. For the same compound, the TGI in the assay with OVCAR-3 ovarian, in the assay on OVCAR-8 ovarian, in the assay on SF-268 CNS and in the assay on SK-OV-3 ovarian was more than 100 µM each time.

For the compound `CC(NC1=NCCO1)c1ccco1` (centres undefined), the TGI in the assay on COLO 205 colon, with HOP-62 NSCLC, in the assay on HOP-92 NSCLC, with MDA-MB-231 breast, with MOLT-4 leukemia and in the assay with NCI-H226 lung was more than 100 µM throughout. Further, the TGI in the assay on OVCAR-3 ovarian, with OVCAR-8 ovarian, with SF-268 CNS and with SK-OV-3 ovarian was more than 100 µM each time.

With `COc1ccc(Nc2ccnc3cc(Cl)ccc23)cc1CN(CCCl)CCCl`, the GI50 in the assay on COLO 205 colon was 1.39 µM; in the assay on HOP-62 NSCLC it was 1.37 µM; in the assay with HOP-92 NSCLC, 1.17 µM; in the assay with MDA-MB-231 breast, 2.45 µM; with MOLT-4 leukemia, 0.662 µM; in the assay on NCI-H226 lung, 1.63 µM. Besides, the GI50 with OVCAR-3 ovarian was 1.95 µM; in the assay on OVCAR-8 ovarian it was 2.2 µM; in the assay with SF-268 CNS it was 1.15 µM; with SK-OV-3 ovarian it was 1.56 µM. In addition, the TGI in the assay on COLO 205 colon was 3.56 µM; in the assay on HOP-62 NSCLC it was 4.01 µM; with HOP-92 NSCLC, 5.53 µM; in the assay on MDA-MB-231 breast it was 15.9 µM; in the assay on MOLT-4 leukemia it was 2.61 µM; in the assay on NCI-H226 lung it was 4.17 µM. Also, the TGI was 6.04 µM with OVCAR-3 ovarian, more than 100 µM in the assay on OVCAR-8 ovarian and 4.89 µM in the assay with SF-268 CNS.

With `O=C1CCc2c(sc3ncnc(Nc4cccc(Br)c4)c23)C1`, the TGI with COLO 205 colon was 20.8 µM; in the assay on HOP-62 NSCLC, 18.7 µM; in the assay on HOP-92 NSCLC, 9.21 µM; in the assay with MDA-MB-231 breast, 11.5 µM; in the assay on MOLT-4 leukemia it was more than 27 µM; in the assay with NCI-H226 lung, 14.8 µM. The TGI in the assay on OVCAR-3 ovarian worked out at 8.31 µM; in the assay on OVCAR-8 ovarian it was 21.3 µM; in the assay with SF-268 CNS, 15.2 µM; in the assay on SK-OV-3 ovarian, 20.1 µM.

With `Cn1c(-c2cccs2)cc(-c2ccsc2)c1-c1ccsc1`, the TGI in the assay with COLO 205 colon, in the assay with HOP-62 NSCLC, with HOP-92 NSCLC, with MDA-MB-231 breast, in the assay on MOLT-4 leukemia and in the assay on NCI-H226 lung was more than 100 µM throughout. The TGI with OVCAR-3 ovarian, in the assay on OVCAR-8 ovarian, in the assay with SF-268 CNS and in the assay with SK-OV-3 ovarian was more than 100 µM throughout.

`COc1ccc(C(OCC2OC(n3ccc(Oc4c(F)c(F)c(F)c(F)c4F)nc3=O)CC2OP(OCCC#N)N(C(C)C)C(C)C)(c2ccccc2)c2ccc(OC)cc2)cc1` (centres undefined): the TGI in the assay with COLO 205 colon, in the assay on HOP-62 NSCLC, in the assay with HOP-92 NSCLC, in the assay with MDA-MB-231 breast, in the assay with MOLT-4 leukemia and with NCI-H226 lung was more than 100 µM in each case. For the same compound, the TGI in the assay with OVCAR-3 ovarian, with OVCAR-8 ovarian, with SF-268 CNS and in the assay with SK-OV-3 ovarian was more than 100 µM throughout.

Take `O=C(CSCC(=O)N/N=C\c1cccc(Br)c1)N/N=C\c1cccc(Br)c1`: the TGI is more than 100 µM with COLO 205 colon; 31.7 µM with HOP-62 NSCLC; 47 µM in the assay on HOP-92 NSCLC; 26.2 µM in the assay on MDA-MB-231 breast; 73 µM in the assay on MOLT-4 leukemia; 36.5 µM with NCI-H226 lung. Besides, the TGI in the assay on OVCAR-3 ovarian turned out to be 26.6 µM; in the assay with OVCAR-8 ovarian, 35.4 µM; in the assay with SF-268 CNS, 37.9 µM; in the assay on SK-OV-3 ovarian it was 40.6 µM.
